Experimental findings from US20120165319A1, “INHIBITORS OF INTERLEUKIN-1 BETA CONVERTING ENZYME” (VERTEX PHARMACEUTICALS INCORPORATED, priority 1995, published 2012) are described below.

Assay [1] deals with IL-1β, human peripheral blood mononuclear cells (PBMC). Nature of the assay: PBMC cell assay: IL-1β assay with human PBMC or enriched adherent mononuclear cells, LPS-stimulated. It is filed as cell-based. The essentials: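 Buffy-coat human PBMC at 6×10^6 cells/ml, or adherent monocytes enriched by 1 h adherence (2.5−3.0×10^5 cells/well), are given 5–6 compound dilutions bracketing the ICE Ki (final DMSO 0.1%) plus LPS at a final 5 ng/ml. They are incubated 16–18 hr at 37 °C, 5% CO2, and supernatant mature IL-1β is measured by ELISA, with duplicate cultures and duplicate ELISAs.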

Assay [2] concerns the target T1, ICE (Homo sapiens, UniProt P29466).
T1 sequence (P29466 120-297 limits assumed): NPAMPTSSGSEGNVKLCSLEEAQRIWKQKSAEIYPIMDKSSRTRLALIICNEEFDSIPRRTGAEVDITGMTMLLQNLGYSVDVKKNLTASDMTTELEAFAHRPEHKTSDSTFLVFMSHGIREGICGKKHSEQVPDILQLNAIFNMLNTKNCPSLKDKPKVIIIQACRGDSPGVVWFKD
T1 sequence (P29466 317-404 limits assumed): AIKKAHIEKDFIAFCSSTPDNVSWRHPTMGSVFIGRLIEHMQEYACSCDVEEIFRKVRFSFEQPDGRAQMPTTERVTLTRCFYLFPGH
Nature of the assay: Enzyme assay with UV-visible substrate (visible ICE assay, Succinyl-Tyr-Val-Ala-Asp-pNitroanilide). Type of assay: biochemical. The essentials:
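Buffer, ICE and inhibitor in DMSO are combined and held 15 min at room temperature. Succinyl-Tyr-Val-Ala-Asp-pNA is then added and absorbance at 405-603 nm tracked for 20 min at 37° C.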

[3] abbreviates: * = values obtained upon reassay.
Where [4] appears, read: Homo sapiens, PBMC, * = values obtained upon reassay.

For `Cc1nc(C)c(C(=O)N[C@H]2CCC(=O)N3CCC[C@@H](C(=O)N[C@H](C=O)CC(=O)O)N3C2=O)s1` [Compound 423], the IC50 stood at 1800 nM in assay [1] (setting [3]) and 2100 nM in assay [1] (setting [4]). The compound also displayed an inhibition constant (Ki) in assay [2] (Table 5) of 10 nM.
The matching figures for `COCC(=O)N1C[C@H](NC(=O)c2cccc3ccccc23)C(=O)N(CC(=O)N[C@H](C=O)CC(=O)O)c2ccccc21` [Compound 2201, (3S)-3-[(3S)-2-oxo-3-(1-naphthoyl)amino-5-methoxyacetyl-2,3,4,5-tetrahydro-1H-1,5-benzodiazepine-1-acetylamino]4-oxo-butyric acid]: 3700 nM, 2000 nM and 9 nM.
In assay [1] (setting [4]), `O=C(O)C[C@H](NC(=O)[C@@H]1CCCN2C(=O)CC[C@H](NC(=O)c3ccccc3)C(=O)N12)C(=O)CSCc1ccccc1Cl` [Compound 226e, [3S(1S,9S)]3-(9-Benzoylamino-6,10-dioxo-1,2,3,4,7,8,9,10-octahydro-6H-pyridazino[1,2-a][1,2]-diazepine-1-carboxamido)-5-(2-chlorophenyl)methylthio-4-oxopentanoic acid] yielded an IC50 of 1100 nM. The same compound showed an inhibition constant (Ki) in assay [2] (Table 5) of 15 nM.
Compound `Cc1cc(C(=O)N[C@H]2CN(C(=O)CO)c3ccccc3N(CC(=O)N[C@H](C=O)CC(=O)O)C2=O)cc(C)c1O` [Compound 691a, (3S)-3-[(3S)-2-Oxo-3-(3,5-dimethyl-4-hydroxybenzoyl)amino-5-hydroxyacetyl-2,3,4,5-tetrahydro-1H-1,5-benzodiazepine-1-acetylamino]-4-oxo-butyric acid] registered an IC50 in assay [1] (Homo sapiens, PBMC, Table 17) of 2900 nM. This compound also displayed an inhibition constant (Ki) in assay [2] (Table 17) of 2.1 nM.
